Test results taken from paper PMC5838563, “Compounds producing an effective combinatorial regimen for disruption of HIV‐1 latency” (EMBO Molecular Medicine, 2017).
Like-named read-outs stand apart in the source and are kept apart here.

How the values were obtained:
[1] = system: HIV‐1 LTR (Jurkat^Tat LTR‐luciferase cell line); assay: Jurkat^Tat LTR‐luciferase reporter assay for HIV‐1 latency reversal; type: cell-based; conditions: for EC50: Human immunodeficiency virus 1, 24 h treatment, percent activation relative to PMA; for latency‐reversing activity of PH02 analogs compared with PH02: 24 h, also in Jurkat^Tat LTR‐DsRed clones #11 and #131
Experimental: Activity of compounds identified for latency‐reversing activity in the primary screens was further validated by examining the effect of a single concentration (7 μM) on an alternative reporter cell line, bearing an integrated HIV‐1 reporter virus where luciferase expression is produced from the 5′ LTR, in cells constitutively expressing the viral TAT protein (Fig 2A), referred to as Jurkat^Tat LTR‐luciferase. Importantly, this cell line has the HIV‐1 reporter virus integrated at a different chromosomal location than that of the A1 J‐Lat cell line and also enables validation of provirus reactivation with a second enzymatic luciferase assay. In these assays, after 24‐h treatment we observed 10 compounds that produced significant induction of luciferase activity, including two compounds from the KD2 library, three from the CCBN library and five compounds from the DIVERSet. Compounds that produced significant effects in these secondary assays were re‐ordered from their respective suppliers and examined in more detail using the HIV‐luciferase reporter cell line. […] These five compounds represent diverse chemical structures (Fig 2G).
Figure 2 Concentration–response analysis for five selected PH compounds • A Schematic representation of the pTY‐LAI‐luciferase reporter virus used in secondary screening assays, where luciferase expression is under the control of the 5′ LTR, in cloned lines derived from Jurkat^TAT cells bearing single‐copy integrants. • B–F Luciferase activity was measured from reporter cells treated for 24 h with the indicated compound concentrations. Results are presented as percent activation relative to PMA‐treated controls. The EC50 for each compound is indicated. Mean and standard error (SE) for the results are determined from three biological replicates (n = 3) and technical duplicates. • G Illustration of chemical structures of the PH compounds.
Luciferase assays were performed in 96‐well plate format, where 100 μl of cell culture containing 1 × 10^5 luciferase reporter cells was plated per well. After the indicated time of treatment, 100 μl of luciferase assay reagent (SuperlightTM luciferase reporter Gene Assay Kit; BioAssay Systems) was added per well, and incubated for 2 min at RT, when luciferase activity was measured on a VictorTM X3 Multilabel Plate Reader. Results were presented relative to the positive control samples treated with 50 nM PMA. T‐cell activation was measured using 1 × 10^5 wild‐type Jurkat^Tat cells or PBMCs purified from healthy donors, treated as indicated. After 24 h, cells were incubated with 2.4G2 antibody to block nonspecific binding and further stained with 5 μl of anti‐human CD69 or an IgG1 isotype control antibody conjugated with PE‐Cy^Tm7. After 30‐min incubation on ice, the cells were washed twice with PBS and analyzed using a Becton Dickinson LSRII flow cytometer (BD Biosciences) to determine mean fluorescence intensity (MFI), using FlowJo software. The mean fluorescence intensity (MFI) obtained from cells stained with IgG isotype antibody control was subtracted from that from cells stained with CD69 to compensate for background (MFICD69‐MFIIgG). IL‐2 production was measured in cell culture supernatants using a human IL‐2 ELISA System (eBioscience). Jurkat^Tat clones bearing integrations of the mini‐dual HIV reporter virus, clone #11 and #131, were plated at 1 × 10^5 per well in a 96‐well plate format, treated for the indicated time, washed with 1 ml PBS, and then transferred into flow cytometry tubes, where they were fixed with freshly made 1% formaldehyde for 10 min at RT prior to analysis by flow cytometry. Results are presented as ΔMFI, where MFI obtained from parental Jurkat^Tat cells undergoing the same treated was subtracted from the MFI corresponding to each cell line; ΔMFI = (MFI compound‐treated cell line 131/11 − MFI compound‐treated WT Jurkat^Tat cells).

[2] = system: latent HIV‐1 provirus in resting CD4^+ T cells from HIV‐1‐infected patients; assay: Supernatant HIV‐1 RNA from resting CD4+ T cells of patients (RT–qPCR); type: cell-based; conditions: 24 h
Experimental: For this analysis, we purified resting CD4^+ (rCD4^+) T lymphocytes from pools of patient samples by two‐step negative selection (Appendix Table S3). […] Purified rCD4^+ T cells were treated with 30 μM of each PH compound for 24 h, and RNA from the culture supernatants was analyzed by one‐step RT–qPCR, where results are presented as copy numbers of the virion/ml. […] Based on its capability for reactivating latent provirus at multiple chromosomal locations in cell lines, its negligible toxic effect, and that it produces the most robust reactivation of virus from patient samples, we focused our subsequent analysis on this compound (Table 1).
Figure 8 Effect of PH compounds on expression of HIV provirus in latently infected cells from patients Resting CD4^+ T cells purified from patient samples (n = 18, Appendix Table S3) were treated with 30 μM of each PH compound for 24 h, and HIV‐1 RNA was measured in culture supernatants. Results are presented as HIV virions/ml (mean ± SE). LOD indicates the limit of detection, 100 copies/ml culture supernatant. TEXT PRINTED IN THE PICTURE: PMA: Supernatant HIV-1 mRNA (Copies/ml): 308929.80 (50 nM) | PH01: Supernatant HIV-1 mRNA (Copies/ml): 5348.04 (Single Concentration (30μM)) | PH02: Supernatant HIV-1 mRNA (Copies/ml): 17624.53 (Single Concentration (30μM)) | PH03: Supernatant HIV-1 mRNA (Copies/ml): 4714.11 (Single Concentration (30μM)) | PH04: Supernatant HIV-1 mRNA (Copies/ml): 7134.68 (Single Concentration (30μM)) | PH05: Supernatant HIV-1 mRNA (Copies/ml): 587.19 (Single Concentration (30μM))
HIV‐1 RNA was measured from 1 × 10^6 resting CD4^+ T lymphocytes treated with 30 μM of each compound. Extracellular RNA was isolated using the ZR Viral RNA Kit (Zymo Research) and total cellular mRNA using the RNeasy MinElute cleanup kit (Qiagen). HIV‐1 RNA concentrations were assayed in one‐step RT–qPCRs using the iTaq™ universal SYBR Green one‐step kit (BIO‐RAD) with the HIV‐1 LTR‐specific primers, AGCCGCCTAGCATTTCATC and […]. RNA copy number was calculated using a standard curve generated from titrated infections with RGH‐PGK virus (Dahabieh et al, 2013). Reproducibility of RT–qPCR analysis was confirmed using a second set of primers within HIV‐1 p24 Gag, AGCAGCCATGCAAATGTTA, […]. HIV‐1 RNA determinations were normalized to GAPDH RNA measured using the primers […] and […].

[3] = system: HIV‐1 LTR (Jurkat^Tat LTR‐DsRed clone #11); assay: mdHIV LTR‐DsRed reporter assay, clone #11; type: cell-based; conditions: PMA stimulation, of eGFP expressing cells
Source text: HIV‐1 tends to integrate into actively transcribed regions of the host genome (Jordan et al, 2003; Lewinski et al, 2006; Ikeda et al, 2007). Each HIV‐1‐infected patient carries viral DNA integrated at different chromosomal locations, and as we have previously shown, the site of viral integration influences how latently infected T cells respond to different stimuli (Hashemi et al, 2016). Therefore, an ideal LRA should be capable of disrupting latency in cell models carrying integrated viral reporters at multiple different regions within the host genome. To assess this capability for the PH compounds, we used two additional previously described cell lines, designated Jurkat^Tat LTR‐DsRed clones #11, and #131, that carry a mini‐dual fluorescent HIV‐1 LTR reporter (mdHIV) at different chromosomal locations. The minivirus mdHIV has two fluorescent reporters in which DsRed expression is driven from the 5′ LTR, and eGFP is constitutively expressed from an internal EIF‐1α promoter (Fig 5A). […]
Figure 5 Effect of PH02 on HIV provirus integrated at different chromosomal locations • A The effect of PH compounds was analyzed using clonal lines bearing single‐copy integrations of the mini‐dual fluorescent HIV‐1 LTR reporter, md‐HIV, where GFP is constitutively expressed from the EIF‐1α internal promoter, and DsRed from the 5′ LTR. • B Fluorescence‐activated cell sorting (FACS) of cells bearing md‐HIV provirus indicates expression of EIF‐1α‐GFP and LTR‐dsRed. Stimulation of the md‐HIV lines generally causes a shift of the fluorescence profile from GFP^+/DsRed^− toward GFP^+/DsRed^+. • C, D Clone 11 or clone 131 was treated with the indicated concentrations of PH02 (left panels) or PH02 in combination with 10 nM PEP005 (right panels) for 24 h and cells analyzed by flow cytometry. Results presented as Δmean fluorescence intensity (ΔMFI) of DsRed expression and fold increase in DsRed expression for solo and combination treatments, respectively. Mean and SE are determined from three biological replicates (n = 3) and technical duplicates. […]

HIV reservoir = conditions: cited from earlier work

Structure (SMILES) | EC50 [1] [nM] | Supernatant HIV-1 mRNA ([2]; 30 μM, LOD 100 copies/ml) [Copies/ml] | also measured
Cn1c(C=Cc2c[nH]c3ccccc23)nc2ccccc2c1=O [PH01, 2‐[2‐(1H‐indol‐3‐yl)vinyl]‐3‐methyl‐4(3H)‐quinazolinone] | 141 | 5348.04 | –
COc1ccccc1N(/C=C1\Sc2ccccc2C1=O)C(C)=O [PH02a, N-(2-methoxyphenyl)-N-[(3-oxo-1-benzothien-2(3H)-ylidene)methyl]acetamide] | – | – | latency‐reversing activity of PH02 analogs compared with PH02 [1]: significant reduction
COc1ccccc1N(C=O)/C=C1\Sc2ccccc2C1=O [PH02b, (2-methoxyphenyl)[(3-oxo-1-benzothien-2(3H)-ylidene)methyl]formamide] | – | – | latency‐reversing activity of PH02 analogs compared with PH02 [1]: significant reduction
Cl.Nc1ccc(-c2ccc3ccccc3n2)cc1 [PH03, 2‐(4‐aminophenyl)quinoline hydrochloride] | 1250 | 4714.11 | –
Cc1cc(I)cnc1NC(=S)NC(=O)c1ccco1 [PH04, N‐{[(5‐iodo‐3‐methyl‐2‐pyridinyl)amino]carbonothioyl}‐2‐furamide] | 2560 | 7134.68 | –
COc1cccc(-n2nnc(C(=O)Nc3ccc(C)cc3)c2C)c1 [PH05, 1‐(3‐methoxyphenyl)‐5‐methyl‐N‐(4‐methylphenyl)‐1H‐1,2,3‐triazole‐4‐carboxamide] | 5900 | 587.19 | –
CCCCCCCCCCCCCC(=O)O[C@@H]1[C@@H](C)[C@@]2(O)[C@@H](C=C(CO)C[C@]3(O)C(=O)C(C)=C[C@@H]23)[C@@H]2C(C)(C)[C@]12OC(C)=O [PMA, phorbol 12‐myristate 13‐acetate, reference compound] | – | – | cells producing dsRed expression upon stimulation [3]: ~ 40%; Supernatant HIV-1 mRNA ([2]; 50 nM, positive control): 308929.80 Copies/ml
Cc1[nH]c2ccccc2c1CCNCc1ccc(/C=C/C(=O)NO)cc1 [Panobinostat] | – | – | reduction in the HIV reservoir (HIV reservoir; 20 mg three times a week every other week for 8 weeks, ref Rasmussen et al, 2014): did not produce a reduction in the HIV reservoir
O=C(CCCCCCC(=O)Nc1ccccc1)NO [Vorinostat, suberoylanilide hydroxamic acid] | – | – | reduction in the HIV reservoir (HIV reservoir; 400 mg daily for 14 days or 3 days a week for 8 weeks, ref Archin et al, 2014, Elliott et al): did not produce a reduction in the HIV reservoir
